Values quoted from earlier work in patent US20210401766A1, “Method of Using Cannabinoids Encapsulated in Phospholipid Carriers for Transmucosal and Transdermal Administration” (NuVessl, Inc., priority 2018, published 2021).

## C=C(C)[C@@H]1CCC(C)=C[C@H]1c1c(O)cc(CCCCC)cc1O [CBD, Cannabidiol]
Oral administration
  Duration of effects: 5 to 8 h
oromucosal
  Bioavailability: approximately 35%
Smoking and vaporizing
  Bioavailability (average): around 40%
  Bioavailability (range): 2%-56%
  Length of time CBD remains in the body: around 3 hours
